Assay results published in patent publication US4016159A, “Acylamino-cephem-carboxylic acids containing an amidino or guanidino group in the molecule” (Hoechst Aktiengesellschaft, priority 1973, dated 1977).
Converted amounts (≈) assume the structure as drawn.

Tests used:
Type in all cases: cell-based
Streptococcus pyogenes A = experiment: Minimum inhibition concentration (MIC), Table 3; details: Germ: Streptococcus pyogenes A; read-out: Minimum inhibition concentration MIC
From the text: Minimum inhibition concentration MIC in γ/ml
Germ: Streptococcus pyogenes A

Streptococcus D = experiment: Minimum inhibition concentration (MIC), Table 4; details: Streptococcus, Germ: Streptococcus D; read-out: Minimum inhibition concentration (MIC)
From the text: (§1) Minimum inhibition concentration (MIC) in γ/ml

[1] = test system: Staphylococcus aureus 285; experiment: Minimum inhibition concentration (MIC), Table 1; details: Staphylococcus aureus, 285, Germ: Staphylococcus aureus 285; read-out: Minimum inhibition concentration (MIC)
From the text: as §1
Germ: Staphylococcus aureus 285

[2] = test system: Staphylococcus aureus SG 511; experiment: Minimum inhibition concentration (MIC), Table 5; details: Staphylococcus aureus, SG511, Germ: Staphylococcus aureus SG 511; read-out: Minimum inhibition concentration (MIC)
From the text: as §1
Germ: Staphylococcus aureus SG 511

Compound | MIC (Streptococcus pyogenes A) [µg/mL] | MIC (Streptococcus D) [µg/mL] | MIC [1] [µg/mL] | MIC [2] [µg/mL]
Cc1nc(SCC2=C(C(=O)O)N3C(=O)C(NC(=O)Cc4ccc(C5=NCCCN5)cc4)C3SC2)sc1C (stereo not shown) [Example 106, 3-[(4,5-dimethylthiazole-2-yl)-thiomethyl]-7-[4-(1,4,5,6-tetrahydropyrimide-2-yl)-phenylacetamido]-Δ3-cephem-4-carboxylic acid] | 0.000391 to 0.0078 (≈ 0.000701 to 0.014 µM) | 10 to 50 (≈ 17.9 to 89.7 µM) | 0.156 to 0.391 (≈ 0.28 to 0.701 µM) | 0.0625 to 0.078 (≈ 0.112 to 0.14 µM)
O=C(Cc1ccc(C2=NCCCN2)cc1)NC1C(=O)N2C(C(=O)O)=C(CSc3nnc(-c4ccccc4)s3)CSC12 (stereo not shown) [Example 80, 3-[(5-phenyl-1,3,4,-thiadiazole-2-yl)-thiomethyl]-7-[4-(1,4,5,6-tetrahydropyrimide-2-yl)-phenylacetamido]-Δ 3-cephem-4-carboxylic acid] | 0.000391 to 0.0078 (≈ 0.000644 to 0.0129 µM) | 10 to 50 (≈ 16.5 to 82.4 µM) | 0.156 to 0.391 (≈ 0.257 to 0.644 µM) | 0.0625 to 0.078 (≈ 0.103 to 0.129 µM)
CCCc1csc(SCC2=C(C(=O)O)N3C(=O)C(NC(=O)Cc4ccc(C5=NCCN5)cc4)C3SC2)n1 (stereo not shown) [Example 114, 3-[(4-n-propyl-thiazole-2-yl)-thiomethyl]-7-[4-(imidazoline-2-yl)-phenylacetamido]-Δ3-cephem-4-carboxylic acid] | 0.000391 to 0.0078 (≈ 0.000701 to 0.014 µM) | 0.196 to 6.25 (≈ 0.351 to 11.2 µM) | 0.156 to 0.391 (≈ 0.28 to 0.701 µM) | 0.0625 to 0.078 (≈ 0.112 to 0.14 µM)
O=C(COc1ccc(C2=NCCN2)cc1)NC1C(=O)N2C(C(=O)O)=C(CSc3nncs3)CSC12 (stereo not shown) [Example 73, 3-[(1,3,4-thiadiazole-2-yl)-thiomethyl]-7-[4-(imidazoline-2-yl)-phenoxyacetamido]-Δ 3-cephem-4-carboxylic acid] | 0.000391 to 0.0078 (≈ 0.000734 to 0.0146 µM) | 10 to 50 (≈ 18.8 to 93.9 µM) | 0.5 to 1.25 (≈ 0.939 to 2.35 µM) | 0.0625 to 0.078 (≈ 0.117 to 0.146 µM)
O=C(Cc1ccc(C2=NCCCN2)cc1)NC1C(=O)N2C(C(=O)O)=C(CSc3nnnn3-c3ccccc3)CSC12 (stereo not shown) [Example 71, 3-[(1-phenyl-1-H-tetrazole-5-yl)-thiomethyl]-7-[4-(1,4,5,6-tetrahydropyrimide-2-yl)-phenyl-acetamido]-Δ 3-cephem-4-carboxylic acid] | 0.000391 to 0.0078 (≈ 0.000662 to 0.0132 µM) | 10 to 50 (≈ 16.9 to 84.6 µM) | 0.5 to 1.25 (≈ 0.846 to 2.12 µM) | 0.0625 to 0.078 (≈ 0.106 to 0.132 µM)
CSc1nc(SCC2=C(C(=O)O)N3C(=O)C(NC(=O)Cc4ccc(C5=NCCCN5)cc4)C3SC2)nc(-c2ccccc2)n1 (stereo not shown) [Example 69, 3-[(4-methylmercapto-6-phenyl-1,3,5-triazine-2-yl)-thiomethyl]-7-[4-(1,4,5,6-tetrahydropyrimide-2-yl)-phenyl-acetamido]-Δ 3-cephem-4-carboxylicacid] | 0.000391 to 0.0078 (≈ 0.000604 to 0.012 µM) | 10 to 50 (≈ 15.4 to 77.2 µM) | 0.156 to 0.391 (≈ 0.241 to 0.604 µM) | 0.0196 to 0.0391 (≈ 0.0303 to 0.0604 µM)
O=C(Cc1ccc(C2=NCCN2)cc1)NC1C(=O)N2C(C(=O)O)=C(CSc3nc(-c4ccccc4)cs3)CSC12 (stereo not shown) [Example 117, 3-[(4-phenyl-thiazole-2-yl)-thiomethyl]-7-[4-(imidazoline-2-yl)-phenylacetamido]-Δ3-cephem-4-carboxylic acid] | 0.000391 to 0.0078 (≈ 0.000661 to 0.0132 µM) | 10 to 50 (≈ 16.9 to 84.5 µM) | 0.5 to 1.25 (≈ 0.845 to 2.11 µM) | 0.0625 to 0.078 (≈ 0.106 to 0.132 µM)
Cc1nnc(SCC2=C(C(=O)O)N3C(=O)C(NC(=O)COc4ccc(C5=NCCCN5)cc4)C3SC2)s1 (stereo not shown) [Example 34, 3-[(5-methyl-1,3,4-thiadizole-2-yl)-thiomethyl]-7-[4-(1,4,5,6-tetrahydropyromide-2-yl)-phenoxyacetamido]-Δ 3-cephem-4-carboxylic acid] | 0.008 to 0.0156 (≈ 0.0143 to 0.0278 µM) | 0.196 to 6.25 (≈ 0.35 to 11.1 µM) | 0.5 to 1.25 (≈ 0.892 to 2.23 µM) | 0.0625 to 0.078 (≈ 0.111 to 0.139 µM)
N=C(N)c1ccc(OCC(=O)NC2C(=O)N3C(C(=O)O)=C(CSc4nc(-c5ccccc5)cs4)CSC23)cc1 (stereo not shown) [Example 27, 3-[(4-phenyl-1,3-thiazole-2-yl)-thiomethyl]-7-(4-amidinophenoxy-acetamido)-Δ 3-cephem-4-carboxylic acid] | 0.000391 to 0.0078 (≈ 0.000672 to 0.0134 µM) | 10 to 50 (≈ 17.2 to 86 µM) | 0.5 to 1.25 (≈ 0.86 to 2.15 µM) | 0.0625 to 0.078 (≈ 0.107 to 0.134 µM)
O=C(Cc1ccc(C2=NCCCN2)cc1)NC1C(=O)N2C(C(=O)O)=C(CSc3nc4ccccc4o3)CSC12 (stereo not shown) [Example 109, 3-[(benzoxazole-2-yl)-thiomethyl]-7-[4-(1,4,5,6-tetrahydropyrimide-2-yl)-phenylacetamido]-Δ3-cephem-4-carboxylic acid] | 0.000391 to 0.0078 (≈ 0.000694 to 0.0138 µM) | 10 to 50 (≈ 17.7 to 88.7 µM) | 0.156 to 0.391 (≈ 0.277 to 0.694 µM) | 0.0625 to 0.078 (≈ 0.111 to 0.138 µM)
O=C(COc1ccc(C2=NCCCN2)cc1)NC1C(=O)N2C(C(=O)O)=C(CSc3nncs3)CSC12 (stereo not shown) [Example 62] | 0.008 to 0.0156 (≈ 0.0146 to 0.0285 µM) | 10 to 50 (≈ 18.3 to 91.5 µM) | 0.5 to 1.25 (≈ 0.915 to 2.29 µM) | 0.0625 to 0.078 (≈ 0.114 to 0.143 µM)
CC(C)(C)c1csc(SCC2=C(C(=O)O)N3C(=O)C(NC(=O)Cc4ccc(C5=NCCN5)cc4)C3SC2)n1 (stereo not shown) [Example 111, 3-[(4-tert.butyl-thiazole-2-yl)-thiomethyl]-7-[-4-(imidazoline-2-yl)-phenylacetamido]-Δ3-cephem-4-carboxylic acid] | 0.000391 to 0.0078 (≈ 0.000684 to 0.0136 µM) | 0.196 to 6.25 (≈ 0.343 to 10.9 µM) | 0.156 to 0.391 (≈ 0.273 to 0.684 µM) | 0.0625 to 0.078 (≈ 0.109 to 0.136 µM)
CCCCCCNC(=N)c1ccc(OCC(=O)NC2C(=O)N3C(C(=O)O)=C(CSc4nnc(-c5ccccc5)o4)CSC23)cc1 (stereo not shown) [Example 39] | 0.008 to 0.0156 (≈ 0.0123 to 0.024 µM) | 10 to 50 (≈ 15.4 to 76.8 µM) | 0.5 to 1.25 (≈ 0.768 to 1.92 µM) | 0.0196 to 0.0391 (≈ 0.0301 to 0.0601 µM)
